Results: PubChem BioAssay (NCI)
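Step 1: Grow cells in 96-well plates. Step 2: Expose to compound for 48 hours at 5 concentrations. Step 3: Interpolate endpoints linearly; if unreached, use highest concentration. At the TGI there is no net growth.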

How the values were obtained:
Experiment in all cases: NCI anticancer screen, dose series, 48 h
SK-OV-3 ovarian = test system: SK-OV-3 ovarian
HS 578T breast = test system: HS 578T breast
OVCAR-8 ovarian = test system: OVCAR-8 ovarian
A498 renal = test system: A498 renal
HCT-116 colon = test system: HCT-116 colon
KM12 colon = test system: KM12 colon
SK-MEL-2 melanoma = test system: SK-MEL-2 melanoma
SK-MEL-5 melanoma = test system: SK-MEL-5 melanoma
NCI-H522 lung = test system: NCI-H522 lung
HL-60(TB) leukemia = test system: HL-60(TB) leukemia
MDA-MB-435 = test system: MDA-MB-435
UACC-257 melanoma = test system: UACC-257 melanoma
SF-295 CNS = test system: SF-295 CNS
ACHN renal = test system: ACHN renal
SNB-75 CNS = test system: SNB-75 CNS
MOLT-4 leukemia = test system: MOLT-4 leukemia
HCC-2998 colon = test system: HCC-2998 colon
MCF7 breast = test system: MCF7 breast
NCI/ADR-RES ovarian = test system: NCI/ADR-RES ovarian
UACC-62 melanoma = test system: UACC-62 melanoma

SMILES | TGI (SK-OV-3 ovarian) [µM] | TGI (HS 578T breast) [µM] | TGI (OVCAR-8 ovarian) [µM] | TGI (A498 renal) [µM] | TGI (HCT-116 colon) [µM] | TGI (KM12 colon) [µM] | TGI (SK-MEL-2 melanoma) [µM] | TGI (SK-MEL-5 melanoma) [µM] | TGI (NCI-H522 lung) [µM] | TGI (HL-60(TB) leukemia) [µM] | TGI (MDA-MB-435) [µM] | TGI (UACC-257 melanoma) [µM] | TGI (SF-295 CNS) [µM] | TGI (ACHN renal) [µM] | TGI (SNB-75 CNS) [µM] | TGI (MOLT-4 leukemia) [µM] | TGI (HCC-2998 colon) [µM] | TGI (MCF7 breast) [µM] | TGI (NCI/ADR-RES ovarian) [µM] | TGI (UACC-62 melanoma) [µM]
O=C(NC1CCCCC1NC(c1ccccc1)(c1ccccc1)c1ccccc1)C(=O)NC1CCCCC1NC(c1ccccc1)(c1ccccc1)c1ccccc1 (stereo not drawn) | 92.8 | 72.5 | > 100 | > 100 | > 100 | > 100 | > 100 | > 100 | > 100 | > 100 | > 100 | > 100 | > 100 | > 100 | 8.65 | > 100 | > 100 | > 100 | > 100 | 
COC1/C=C/C(C)C(C(C)C(OC)C(C)CCC(=O)C(C)C(C/C=C/N(C)C=O)OC)OC(=O)C=CC2OC2(C)CC(OC)C(OC)C2=CC(=O)O[C@@H](C(C)C(OC)CC(OC)/C=C/C(C)C(O)C1)[C@H]2O (stereo partly drawn) | 0.0667 | 0.0351 |  | 0.0259 | 0.00596 |  | 0.0446 | 0.0284 | 0.0296 | 0.0785 | > 1.24 | 0.0492 | 0.0236 | 0.016 |  |  | 0.0584 | > 0.286 | 0.263 | 0.0514
C/C(=N\Nc1ccc([N+](=O)[O-])cc1[N+](=O)[O-])c1sc(-n2nc(-c3ccccc3)cc2-c2ccccc2)nc1C | > 100 | > 100 | > 100 | 92.3 | > 100 | > 100 |  | > 100 | > 100 | 44.5 | > 100 | 84.7 | > 100 | > 100 | > 100 | 46.8 | > 100 | > 100 | 69.8 | > 100
CC(=O)Nc1ccc(C(O)/C(=N/N)c2nc3ccc(Cl)cc3[nH]c2=O)cc1 (stereo not drawn) |  | > 100 | > 100 | > 100 | > 100 | > 100 | > 100 | > 100 | > 100 | > 100 | > 100 | > 100 | > 100 | > 100 | > 100 | > 100 | > 100 | > 100 | > 100 | > 100
CCC(CCCN)Nc1cc(OC)cc2c(C)ccnc12 (stereo not drawn) | 26.4 | 27.6 | 42.2 | 34 | 37.2 | 29 | 41.5 | 31.6 |  | 27.7 | 28 | 33.7 | 32.9 | 32.6 | 25.3 | 40 | 44.9 | 29.3 | 76.4 | 
O=c1[nH]cc(-c2c[nH]c3ccccc23)nc1-c1c[nH]c2ccccc12 | 26.2 | 39.9 | 25.7 | 27.9 | 26.7 | > 100 | 34.2 | 26.1 | 20.3 |  | 14 | 26.9 | 19 | 25 | 23.7 |  | 21.6 | 54.7 | 49.8 | 23.7
O=S1(=O)OCCOS(=O)(=O)C1(F)Br | > 100 | > 100 | > 100 |  | > 100 | > 100 | > 100 | > 100 | > 100 | > 100 | > 100 | > 100 | > 100 | > 100 | > 100 | > 100 | > 100 | > 100 | > 100 | > 100
CC1(/C=C/CCSc2ccccc2)CC(=O)C2CC1C2(C)C (stereo not drawn) | > 100 | > 100 | > 100 | > 88.3 | > 100 | 54.4 | > 55.9 | 23 | 52.3 |  | > 87.6 | > 73.6 | > 100 | 77.8 | > 100 | > 40.5 | > 73.5 | > 100 | > 61.8 | > 60
NC(N)=NCCCC(NC(=O)c1cccc2c(=O)c3ccccc3[nH]c12)C(=O)O (stereo not drawn) | > 100 | > 100 | > 100 | > 100 | > 100 | > 100 | > 100 | > 100 | > 100 | > 100 | > 100 |  | > 100 | > 100 | > 100 | > 100 |  | > 100 | > 100 | > 100
CS(=O)(=O)OCC1CN(S(C)(=O)=O)c2cc(O)ccc21 (stereo not drawn) |  | > 100 | 11.5 | 7.81 | 12.8 | 13 | 6.88 | 3.52 | 2.94 | 6.59 | 4.07 | 7.72 | 14.6 | 15.1 | 7.43 | 6.93 | 4.47 | 26.2 | 19.9 | 
CC(=O)c1ccc2c(c1)CC1(C2)Cc2cc3c(cc2C1=O)CCC3 (stereo not drawn) | 96.3 | 89.5 | 36.1 | 51.7 | 44 | 32.4 | 46.2 | 22.5 | 83.6 | 35.8 | 32.4 | 30.2 | 49 | 58.2 | 41.2 | 21.8 | 68.4 | 43.8 | 39.4 | 
CC(=O)C1C(=O)C(=O)N(c2cccc([N+](=O)[O-])c2)C1=O (stereo not drawn) | > 100 | > 100 | > 100 |  | > 100 | > 100 | > 100 | > 100 | > 100 | > 100 | > 100 | > 100 | > 100 | > 100 | > 100 | > 100 | > 100 | > 100 | > 100 | > 100
COc1ccc(C2SCC(=O)N2c2ccc(-c3ccc(-n4c(-c5ccccc5)nc5ccccc5c4=O)cc3)cc2)cc1OC (stereo not drawn) | > 100 | > 100 | > 100 | > 100 | > 100 | 28.3 |  |  |  | > 100 | > 100 | > 100 | 33.5 |  | > 100 | > 100 |  | > 100 | > 100 | > 100
CC(C)(C)OC(=O)N/N=C(/N)Cc1ccc(Cl)cc1 | > 100 | > 100 | > 100 | > 100 | > 100 | > 100 | > 100 | > 100 | > 100 |  | > 100 | > 100 | > 100 | > 100 | > 100 | > 100 | > 100 | > 100 | > 100 | > 100
C[n+]1ccc(/C2=C3\C=CC(=N3)/C(c3cc[n+](C)cc3)=c3/cc/c([nH]3)=C(\c3cc[n+](C)cc3)C3=N/C(=C(/c4cc[n+](C)cc4)C4C=CC2N4)C=C3)cc1 | > 100 | > 100 | > 100 | > 100 | > 100 | > 100 |  | > 100 | > 100 | > 100 | > 100 | > 100 | > 100 | > 100 | > 100 | > 100 | > 100 | > 100 | > 100 | > 100
COc1cc(C2SCC(=O)N2c2cccc(Cl)c2)cc(OC)c1OC (stereo not drawn) | > 100 | > 100 | > 100 | > 100 | > 100 | > 100 | > 100 | > 100 | > 100 | > 100 | > 100 | > 100 | > 100 | > 100 |  | > 100 | > 100 | > 100 | > 100 | 54.3
CNC(=O)C1(N)c2ccccc2C=Cc2ccccc21 | > 100 | > 100 | > 100 | > 100 | > 100 | > 100 | > 100 | > 100 | > 100 | > 100 | > 100 |  | > 100 | > 100 |  | > 100 |  | > 100 | > 100 | > 100
O=C1OCC2OC(=O)c3cc(O)c(O)c(O)c3-c3c(O)c(O)c(O)c4c3C(=O)OC(C2OC(=O)c2cc(O)c(O)c(O)c2-c2c1cc(O)c(O)c2O)C1OC(=O)c2c-4c(O)c(O)c(O)c2[C@@H]1C(O)C(O)C(O)C(O)CO (stereo partly drawn) | 59 | 70.3 | 44.1 | > 100 | 31.3 | 52.3 | 48.3 | 28 | 39.7 | 50.8 | 21.9 | 46.7 | 43.7 | 30.7 |  | 49.8 | 64.2 | 17.6 | 66.1 | 36.7
CC1CC(C)C(C#N)N(C)c2ccccc21 (stereo not drawn) | > 100 | > 100 | > 100 | > 100 | > 100 | > 100 | > 100 | > 100 |  | 64.9 | > 100 | > 100 | > 100 | > 100 | > 100 | > 100 | > 100 | > 100 | > 100 | > 100
